AC50 data for 16 molecules are collected here from patent US20250346600A1, “TRICYCLIC DERIVATIVES AND RELATED USES” (MOMA Therapeutics, Inc., priority 2023, published 2025).

Structures are written as SMILES. Read-outs that look alike come from different tables or passages of the source. Some results are limits rather than exact numbers.

The subject of one assay is HCT116 cells. As to the kind of experiment: HCT116 (MSI) 7 day viability, CellTiter Glo. Type of assay: cell-based. Conditions: 7 days, read-out: HCT116 (MSI) Viability 7 Day Abs AC50. Put shortly: (§1)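 Luminescence read-out (CellTiter Glo) after 7-day compound exposure at 37 °C. Seeding density 50 cells/well for HCT116, 500 cells/well for HT29. Background from cell-free medium wells; IC50 by four-parameter logistic fit, geometric mean of at least 2 replicates.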
Background: In ATP-based viability assays light output follows the ATP content of the culture.

Assay [1] concerns the target T1, Full length WRN protein (aa 2-1432) (Homo sapiens (Human), UniProt Q14191). Briefly: WRN ATPase ADP-Glo biochemical assay, Assay Format B (100 μM ATP). The settings on record: 0.25 nM WRN, 100 nM C6.18 ssDNA, 60 min preincubation, read-out: ATPase ADPGlo AC50 (uM)- Assay Format B.
Assay [2] concerns the target T1, Full length WRN protein (aa 2-1432). As to the kind of experiment: WRN ATPase ADP-Glo biochemical assay, Assay Format A (10 μM ATP). The settings on record: 0.25 nM WRN, 100 nM C6.18 ssDNA, 30 min preincubation, read-out: ATPase ADPGlo AC50 (uM)- Assay Format A. An outline of the steps: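 Sf9-expressed FLAG-AVI-TEV-tagged WRN (0.5 nM) preincubated 30 min with compound (11-point 3-fold dilution). Reaction started with 200 nM C6.18 39-mer ssDNA and 20 μM ATP (addition concentrations), run 30 min at room temperature. ADP measured by ADP-Glo luminescence; IC50 from four-parameter fit, geometric mean of ≥2 runs.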
In general terms: ADP-Glo turns the ADP formed in a reaction into a luminescent signal.

A further assay deals with HT29 cells. Briefly: HT29 (MSS) 7 day viability, CellTiter Glo. Type of assay: cell-based. The settings on record: 7 days, read-out: HT29 (MSS) Viability 7 Day CTGAbs AC50. An outline of the steps:
as §1

T1 sequence (Q14191 2-1432): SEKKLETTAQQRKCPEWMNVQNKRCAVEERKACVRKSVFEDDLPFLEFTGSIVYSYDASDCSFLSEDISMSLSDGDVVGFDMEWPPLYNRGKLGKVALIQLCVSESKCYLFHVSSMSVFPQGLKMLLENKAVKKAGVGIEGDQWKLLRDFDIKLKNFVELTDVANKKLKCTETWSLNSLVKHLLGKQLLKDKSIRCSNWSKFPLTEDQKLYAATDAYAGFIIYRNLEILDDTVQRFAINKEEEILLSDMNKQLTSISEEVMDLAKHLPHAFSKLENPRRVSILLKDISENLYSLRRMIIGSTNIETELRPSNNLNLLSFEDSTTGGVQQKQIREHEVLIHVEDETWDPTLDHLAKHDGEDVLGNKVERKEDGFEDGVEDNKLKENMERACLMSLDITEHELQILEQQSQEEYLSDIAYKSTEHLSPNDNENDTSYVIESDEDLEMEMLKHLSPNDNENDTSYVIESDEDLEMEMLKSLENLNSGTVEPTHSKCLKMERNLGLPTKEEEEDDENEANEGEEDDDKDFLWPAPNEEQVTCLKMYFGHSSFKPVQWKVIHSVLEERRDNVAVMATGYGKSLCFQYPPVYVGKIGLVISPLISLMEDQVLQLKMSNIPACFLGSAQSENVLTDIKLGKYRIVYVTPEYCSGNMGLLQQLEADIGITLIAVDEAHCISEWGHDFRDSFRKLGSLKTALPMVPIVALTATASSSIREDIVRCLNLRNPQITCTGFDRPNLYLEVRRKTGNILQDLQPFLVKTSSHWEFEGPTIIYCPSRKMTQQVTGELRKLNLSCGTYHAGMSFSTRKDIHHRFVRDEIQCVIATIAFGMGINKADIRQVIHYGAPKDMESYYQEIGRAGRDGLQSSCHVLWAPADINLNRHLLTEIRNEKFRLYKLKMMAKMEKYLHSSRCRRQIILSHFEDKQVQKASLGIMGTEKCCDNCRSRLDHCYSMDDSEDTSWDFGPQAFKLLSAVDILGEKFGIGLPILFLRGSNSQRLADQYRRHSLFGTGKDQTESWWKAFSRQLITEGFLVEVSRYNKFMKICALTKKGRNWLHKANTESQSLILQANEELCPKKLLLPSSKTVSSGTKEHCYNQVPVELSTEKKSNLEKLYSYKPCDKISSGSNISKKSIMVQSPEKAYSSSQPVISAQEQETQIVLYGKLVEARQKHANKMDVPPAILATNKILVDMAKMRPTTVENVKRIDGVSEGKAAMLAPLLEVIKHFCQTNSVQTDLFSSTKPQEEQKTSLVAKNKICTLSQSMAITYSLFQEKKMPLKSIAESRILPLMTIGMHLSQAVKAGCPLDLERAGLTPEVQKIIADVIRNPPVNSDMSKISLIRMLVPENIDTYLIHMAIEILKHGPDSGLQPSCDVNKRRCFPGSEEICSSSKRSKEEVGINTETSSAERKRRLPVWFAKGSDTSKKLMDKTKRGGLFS

With `C=CC(=O)N1CCc2nn(-c3ccc(C(C)C)cc3)c3c2C(C1)N(C(=O)c1cnc(C(F)(F)F)c(OC2CNC2)c1)CC3` (stereo not shown) [Compound 60, 1-(5-(5-(azetidin-3-yloxy)-6-(trifluoromethyl)nicotinoyl)-2-(4-isopropylphenyl)-2,3,4,5,5a,6,8,9-octahydro-7H-1,2,5,7-tetraazabenzo[cd]azulen-7-yl)prop-2-en-1-one], the AC50 – broadly, the concentration at which the activity in the assay is half-maximal – in the assay with HCT116 cells (Homo sapiens, HCT-116, 168 h) is > 1000 nM; in assay [1], > 0.055 µM; in assay [2] it was 0.005 to 0.015 µM; in the assay on HT29 cells (Homo sapiens, HT-29, 168 h), > 3000 nM.
The like results for `C=CC(=O)N1CCc2nn(-c3ccc(C(C)C)cc3)c3c2C(C1)N(C(=O)c1ccc(Br)cc1C(N)=O)CC3` (stereo not shown) [Compound 61, 2-(7-acryloyl-2-(4-isopropylphenyl)-3,4,5,5a,6,7,8,9-octahydro-2H-1,2,5,7-tetraazabenzo[cd]azulene-5-carbonyl)-5-bromobenzamide] were, in that order, 250 to 500 nM, > 0.055 µM, 0.005 to 0.015 µM and > 3000 nM.
For `C=CC(=O)N1CCc2nn(-c3ccc(C4CCC4)cc3O)c3c2C(C1)N(C(=O)c1cnc(Br)c(OC(F)(F)F)c1)CC3` (stereo not shown) [Compound 62, 1-(5-(6-bromo-5-(trifluoromethoxy)nicotinoyl)-2-(4-cyclobutyl-2-hydroxyphenyl)-2,3,4,5,5a,6,8,9-octahydro-7H-1,2,5,7-tetraazabenzo[cd]azulen-7-yl)prop-2-en-1-one], the AC50 in the assay on HCT116 cells (Homo sapiens, HCT-116, 168 h) is 100 to 250 nM; in assay [1] it was > 0.055 µM; in assay [2], 0.0015 to 0.005 µM; in the assay with HT29 cells (Homo sapiens, HT-29, 168 h), > 3000 nM.
The like results for `C=CC(=O)N1CCc2nn(-c3ccc(C4CC4)c(F)c3OC)c3c2C(C1)N(C(=O)c1cnc(C(F)(F)F)c(O)c1)CC3` (stereo not shown) [Compound 63, 1-(2-(4-cyclopropyl-3-fluoro-2-methoxyphenyl)-5-(5-hydroxy-6-(trifluoromethyl)nicotinoyl)-2,3,4,5,5a,6,8,9-octahydro-7H-1,2,5,7-tetraazabenzo[cd]azulen-7-yl)prop-2-en-1-one] were, in that order, 500 to 1000 nM, 0.015 to 0.055 µM, 0.0015 to 0.005 µM and > 3000 nM.
The like results for `C=CC(=O)N1CCc2nn(-c3ccc(C(C)C)cc3)c3c2C(C1)N(C(=O)c1ccc(Br)c2c1CCO2)CC3` (stereo not shown) [Compound 65, 1-(5-(7-bromo-2,3-dihydrobenzofuran-4-carbonyl)-2-(4-isopropylphenyl)-2,3,4,5,5a,6,8,9-octahydro-7H-1,2,5,7-tetraazabenzo[cd]azulen-7-yl)prop-2-en-1-one] were, in that order, 1 to 100 nM, 0.015 to 0.055 µM, < 0.0015 µM and > 3000 nM.
As for `C=CC(=O)N1CCc2nn(-c3ccc(C4CCC4)c(F)c3)c3c2C(C1)N(C(=O)c1cnc(C(F)(F)F)c(O)c1)CC3` (stereo not shown) [Compound 66, 1-(2-(4-cyclobutyl-3-fluorophenyl)-5-(5-hydroxy-6-(trifluoromethyl)nicotinoyl)-2,3,4,5,5a,6,8,9-octahydro-7H-1,2,5,7-tetraazabenzo[cd]azulen-7-yl)prop-2-en-1-one], the AC50 was 1 to 100 nM with HCT116 cells (Homo sapiens, HCT-116, 168 h); 0.005 to 0.015 µM in assay [1]; < 0.0015 µM in assay [2]; > 3000 nM in the assay with HT29 cells (Homo sapiens, HT-29, 168 h).
In the case of `C=CC(=O)N1CCc2nn(-c3ccc(C4CC4)cc3)c3c2C(C1)N(C(=O)c1ccc(C(F)(F)F)nc1N)CC3` (stereo not shown) [Compound 67, 1-(5-(2-amino-6-(trifluoromethyl)nicotinoyl)-2-(4-cyclopropylphenyl)-2,3,4,5,5a,6,8,9-octahydro-7H-1,2,5,7-tetraazabenzo[cd]azulen-7-yl)prop-2-en-1-one], the AC50 in the assay on HCT116 cells (Homo sapiens, HCT-116, 168 h) was 1 to 100 nM; in assay [1], 0.005 to 0.015 µM; in assay [2] it was 0.0015 to 0.005 µM; in the assay with HT29 cells (Homo sapiens, HT-29, 168 h), > 3000 nM.
As to `C=CC(=O)N1CCc2nn(-c3ccc(C4CC4)cc3)c3c2C(C1)N(C(=O)c1ccn(CC(F)(F)F)c(=O)c1)CC3` (stereo not shown) [Compound 68, 4-(7-acryloyl-2-(4-cyclopropylphenyl)-3,4,5,5a,6,7,8,9-octahydro-2H-1,2,5,7-tetraazabenzo[cd]azulene-5-carbonyl)-1-(2,2,2-trifluoroethyl)pyridin-2(1H)-one], the AC50 is > 1000 nM in the assay on HCT116 cells (Homo sapiens, HCT-116, 168 h); > 0.055 µM in assay [1]; > 0.055 µM in assay [2]; > 3000 nM in the assay with HT29 cells (Homo sapiens, HT-29, 168 h).
On to `C=CC(=O)N1CCc2nn(-c3ccc(C4CC4)cc3)c3c2C(C1)N(C(=O)c1ccc(OC(F)F)nc1)CC3` (stereo not shown) [Compound 69, 1-(2-(4-cyclopropylphenyl)-5-(6-(difluoromethoxy)nicotinoyl)-2,3,4,5,5a,6,8,9-octahydro-7H-1,2,5,7-tetraazabenzo[cd]azulen-7-yl)prop-2-en-1-one], for which the AC50 was 100 to 250 nM in the assay with HCT116 cells (Homo sapiens, HCT-116, 168 h); 0.015 to 0.055 µM in assay [1]; 0.005 to 0.015 µM in assay [2]; > 3000 nM in the assay with HT29 cells (Homo sapiens, HT-29, 168 h).
As to `C=CC(=O)N1CCc2nn(-c3ccc(C4CC4)cc3)c3c2C(C1)N(C(=O)c1ccc2c(c1)[nH]c(=O)n2C)CC3` (stereo not shown) [Compound 70, 5-(7-acryloyl-2-(4-cyclopropylphenyl)-3,4,5,5a,6,7,8,9-octahydro-2H-1,2,5,7-tetraazabenzo[cd]azulene-5-carbonyl)-1-methyl-1,3-dihydro-2H-benzo[d]imidazol-2-one], the half-maximal activity concentration (AC50) in the assay with HCT116 cells (Homo sapiens, HCT-116, 168 h) was > 1000 nM; in assay [1], > 0.055 µM; in assay [2], > 0.055 µM; in the assay on HT29 cells (Homo sapiens, HT-29, 168 h), > 3000 nM.
As for `C=CC(=O)N1CC(OC)c2nn(-c3ccc(C4CCC4)cc3O)c3c2C(C1)N(C(=O)c1cnc(C(F)(F)F)c(O)c1)CC3` (stereo not shown) [Compound 72, 1-(2-(4-cyclobutyl-2-hydroxyphenyl)-5-(5-hydroxy-6-(trifluoromethyl)nicotinoyl)-9-methoxy-2,3,4,5,5a,6,8,9-octahydro-7H-1,2,5,7-tetraazabenzo[cd]azulen-7-yl)prop-2-en-1-one], the AC50 is 1 to 100 nM in the assay on HCT116 cells (Homo sapiens, HCT-116, 168 h); 0.0015 to 0.005 µM in assay [1]; < 0.0015 µM in assay [2]; > 3000 nM in the assay with HT29 cells (Homo sapiens, HT-29, 168 h).
With `C=CC(=O)N1CCc2nn(-c3ccc(C(C)C)cc3)c3c2C(C1)N(C(=O)c1ccc(Br)c2ncn(CCOC)c12)CC3` (stereo not shown) [Compound 73, 1-(5-(4-bromo-1-(2-methoxyethyl)-1H-benzo[d]imidazole-7-carbonyl)-2-(4-isopropylphenyl)-2,3,4,5,5a,6,8,9-octahydro-7H-1,2,5,7-tetraazabenzo[cd]azulen-7-yl)prop-2-en-1-one], the half-maximal activity concentration (AC50) is 100 to 250 nM in the assay on HCT116 cells (Homo sapiens, HCT-116, 168 h); 0.015 to 0.055 µM in assay [1]; 0.0015 to 0.005 µM in assay [2]; > 3000 nM in the assay on HT29 cells (Homo sapiens, HT-29, 168 h).
The matching figures for `C=CC(=O)N1CCc2nn(-c3ccc(C4CCC4)cc3O)c3c2C(C1)N(C(=O)c1ccc(OC(F)F)nc1)CC3` (stereo not shown) [Compound 74, 1-(2-(4-cyclobutyl-2-hydroxyphenyl)-5-(6-(difluoromethoxy)nicotinoyl)-2,3,4,5,5a,6,8,9-octahydro-7H-1,2,5,7-tetraazabenzo[cd]azulen-7-yl)prop-2-en-1-one]: 1 to 100 nM, 0.005 to 0.015 µM, < 0.0015 µM and > 3000 nM.
The matching figures for `C=CC(=O)N1CCc2nn(-c3ccc(C4CCC4)cc3O)c3c2C(C1)N(C(=O)c1ccc(Br)c2[nH]c(CO)nc12)CC3` (stereo not shown) [Compound 75, 1-(5-(7-bromo-2-(hydroxymethyl)-1H-benzo[d]imidazole-4-carbonyl)-2-(4-cyclobutyl-2-hydroxyphenyl)-2,3,4,5,5a,6,8,9-octahydro-7H-1,2,5,7-tetraazabenzo[cd]azulen-7-yl)prop-2-en-1-one]: 1 to 100 nM, 0.0015 to 0.005 µM, < 0.0015 µM and > 3000 nM.
The like results for `C=CC(=O)N1CCc2nn(-c3ccc(C(C)C)cc3)c3c2C(C1)N(C(=O)c1ccc(Br)c2ncn(CC4CCO4)c12)CC3` (stereo not shown) [Compound 82, 1-(5-(4-bromo-1-((oxetan-2-yl)methyl)-1H-benzo[d]imidazole-7-carbonyl)-2-(4-isopropylphenyl)-2,3,4,5,5a,6,8,9-octahydro-7H-1,2,5,7-tetraazabenzo[cd]azulen-7-yl)prop-2-en-1-one] were, in that order, 500 to 1000 nM, > 0.055 µM, 0.005 to 0.015 µM and > 3000 nM.
In the case of `C=CC(=O)N1CCc2nn(-c3ccc(C(C)C)cc3)c3c2C(C1)N(C(=O)c1ccc(Br)c2ncn(CC4CCO4)c12)CC3` (stereo not shown) [Compound 83, 1-(5-(4-bromo-1-((oxetan-2-yl)methyl)-1H-benzo[d]imidazole-7-carbonyl)-2-(4-isopropylphenyl)-2,3,4,5,5a,6,8,9-octahydro-7H-1,2,5,7-tetraazabenzo[cd]azulen-7-yl)prop-2-en-1-one], the AC50 with HCT116 cells is 500 to 1000 nM; in assay [1], > 0.055 µM; in assay [2] it was 0.005 to 0.015 µM; in the assay with HT29 cells, > 3000 nM.
